Laboratory results as given in US20120165315A1, “[…] PRODRUG SALTS” (priority 2010, published 2012).

Experiments:
[1] = Hygroscopicity of the free base and its salts; format: physicochemical; conditions: solid form
From the text: (§1) The advantageous properties of salts according to the invention can be seen from the table below:
(§2) The salts were all obtained in good yields.

[2] = Thermal profile / melt event of the free base and its salts; format: physicochemical; conditions: solid form
From the text: as §1, §2

[3] = Norbury et al. 1983; cited from earlier work
[4] = Balikova et al. 2001; cited from earlier work
[5] = rat model; Lu et al. 2005, Xie et al. 2005; cited from earlier work
[6] = listed as maleic acid addition salt

Compound	Hygroscopic [1]	Good thermal profile with clean melt event [2]	also measured
CCC1(c2cccc(OC(=O)Nc3ccc(C(=O)O)cc3)c2)CCCCN(C)C1.O=C(O)/C=C\C(=O)O (stereo not drawn) [Meptazinol PABA Carbamate Maleic Acid Addition Salt]	no	yes	Hygroscopic [1, 6]: not be hygroscopic; Good thermal profile with clean melt event [2, 6]: good thermal profiles with clean melt events
CCC1(c2cccc(OC(=O)Nc3ccc(C(=O)O)cc3)c2)CCCCN(C)C1.O=C(O)CC(=O)O (stereo not drawn) [Meptazinol PABA Carbamate Malonic Acid Addition Salt]	not be hygroscopic and no	yes	Good thermal profile with clean melt event ([2]; listed as malonic acid addition salt): good thermal profiles with clean melt events
CCC1(c2cccc(OC(=O)Nc3ccc(C(=O)O)cc3)c2)CCCCN(C)C1.CS(=O)(=O)O (stereo not drawn) [Meptazinol PABA Carbamate Methanesulphonic Acid Addition Salt]	not be hygroscopic and no	yes	Good thermal profile with clean melt event ([2]; listed as methanesulphonic acid addition salt): good thermal profiles with clean melt events
CCC1(c2cccc(OC(=O)Nc3ccc(C(=O)O)cc3)c2)CCCCN(C)C1.O=P(O)(O)O (stereo not drawn) [Meptazinol PABA Carbamate Phosphoric Acid Addition Salt]	no	no	Hygroscopic ([1]; listed as phosphoric acid addition salt): not be hygroscopic
CCC1(c2cccc(OC(=O)Nc3ccc(C(=O)O)cc3)c2)CCCCN(C)C1.O=S(=O)(O)O (stereo not drawn) [Meptazinol PABA Carbamate Sulphuric Acid Addition Salt]	not be hygroscopic and no	yes	Good thermal profile with clean melt event ([2]; listed as sulphuric acid addition salt): good thermal profiles with clean melt events
CCC1(c2cccc(O)c2)CCCCN(C)C1 (stereo not drawn) [Meptazinol]	–	–	oral bioavailability [3]: < 10%
COc1ccc2c3c1O[C@H]1[C@@H](O)CC[C@H]4[C@@H](C2)N(C)CC[C@@]341 [dihydrocodeine]	–	–	share of an oral dose converted to dihydromorphine [4]: less than 2%
CCC1(c2cccc(OC(=O)Nc3ccc(C(=O)O)cc3)c2)CCCCN(C)C1 (stereo not drawn) [meptazinol p-amino-benzoylcarbamate, Meptazinol para-amino benzoic acid carbamate]	yes	no	Hygroscopic ([1]; listed as meptazinol p-amino-benzoic acid carbamate): very hygroscopic
CCC1(c2cccc(OC(=O)Nc3ccc(C(=O)O)cc3)c2)CCCCN(C)C1.Cl (stereo not drawn) [meptazinol p-amino-benzoylcarbamate•HCl]	yes	no	–
(Z)-3-[2-(propionyloxy)phenyl]-2-propenoic ester	–	–	bioavailability over meptazinol itself [5]: significant increase
